Experimental data published in ChEMBL document CHEMBL4507277.

Columns and labels:
[1] = system: Tyrosine-protein kinase ABL1 (Homo sapiens), P00519 [M351T]; conditions: Compound concentration 1000.0 nM
[2] = system: Tyrosine-protein kinase ABL1 (Homo sapiens), P00519 [Q252H]; conditions: Compound concentration 1000.0 nM
[3] = system: Tyrosine-protein kinase ABL1 (Homo sapiens), P00519 [T315I]; conditions: Compound concentration 1000.0 nM
[4] = target: RAC-beta serine/threonine-protein kinase (Homo sapiens) (UniProt P31751); conditions: Compound concentration 1000.0 nM
[5] = target: Bone morphogenetic protein receptor type-1B (Homo sapiens) (UniProt O00238); conditions: Compound concentration 1000.0 nM
[6] = target: Calcium/calmodulin-dependent protein kinase type 1 (Homo sapiens) (UniProt Q14012); conditions: Compound concentration 1000.0 nM
[7] = target: Cyclin-dependent kinase 11A (Homo sapiens) (UniProt Q9UQ88); conditions: Compound concentration 1000.0 nM
[8] = target: Cyclin-dependent kinase 4 (Homo sapiens) (UniProt P11802); conditions: Compound concentration 1000.0 nM
[9] = target: Dual specificity protein kinase CLK4 (Homo sapiens) (UniProt Q9HAZ1); conditions: Compound concentration 1000.0 nM
[10] = target: Macrophage colony-stimulating factor 1 receptor (Homo sapiens) (UniProt P07333); conditions: Compound concentration 1000.0 nM
[11] = target: Casein kinase I isoform alpha-like (Homo sapiens) (UniProt Q8N752); conditions: Compound concentration 1000.0 nM
[12] = target: Serine/threonine-protein kinase DCLK1 (Homo sapiens) (UniProt O15075); conditions: Compound concentration 1000.0 nM
[13] = target: Serine/threonine-protein kinase 17A (Homo sapiens) (UniProt Q9UEE5); conditions: Compound concentration 1000.0 nM
[14] = system: Epidermal growth factor receptor (Homo sapiens), P00533 [L861Q]; conditions: Compound concentration 1000.0 nM
[15] = target: Ephrin type-B receptor 4 (Homo sapiens) (UniProt P54760); conditions: Compound concentration 1000.0 nM
[16] = target: Fibroblast growth factor receptor 3 (Homo sapiens) (UniProt P22607); conditions: Compound concentration 1000.0 nM
[17] = system: Fibroblast growth factor receptor 3 (Homo sapiens), P22607 [G697C]; conditions: Compound concentration 1000.0 nM
[18] = system: Receptor-type tyrosine-protein kinase FLT3 (Homo sapiens), P36888 [D835V]; conditions: Compound concentration 1000.0 nM
[19] = target: Beta-adrenergic receptor kinase 1 (Homo sapiens) (UniProt P25098); conditions: Compound concentration 1000.0 nM
[20] = target: Mitogen-activated protein kinase 8 (Homo sapiens) (UniProt P45983); conditions: Compound concentration 1000.0 nM
[21] = target: Tyrosine-protein kinase Lck (Homo sapiens) (UniProt P06239); conditions: Compound concentration 1000.0 nM
[22] = target: Mitogen-activated protein kinase kinase kinase kinase 4 (Homo sapiens) (UniProt O95819); conditions: Compound concentration 1000.0 nM
[23] = target: MAP kinase-activated protein kinase 2 (Homo sapiens) (UniProt P49137); conditions: Compound concentration 1000.0 nM
[24] = target: Myosin light chain kinase (Homo sapiens) (UniProt Q32MK0); conditions: Compound concentration 1000.0 nM
[25] = target: Serine/threonine-protein kinase MRCK beta (Homo sapiens) (UniProt Q9Y5S2); conditions: Compound concentration 1000.0 nM
[26] = target: Serine/threonine-protein kinase 3 (Homo sapiens) (UniProt Q13188); conditions: Compound concentration 1000.0 nM
[27] = target: Serine/threonine-protein kinase 26 (Homo sapiens) (UniProt Q9P289); conditions: Compound concentration 1000.0 nM
[28] = target: Myosin light chain kinase family member 4 (Homo sapiens) (UniProt Q86YV6); conditions: Compound concentration 1000.0 nM
[29] = target: Serine/threonine-protein kinase Nek5 (Homo sapiens) (UniProt Q6P3R8); conditions: Compound concentration 1000.0 nM
[30] = target: Serine/threonine-protein kinase PAK 3 (Homo sapiens) (UniProt O75914); conditions: Compound concentration 1000.0 nM
[31] = target: Cyclin-dependent kinase 16 (Homo sapiens) (UniProt Q00536); conditions: Compound concentration 1000.0 nM
[32] = target: Cyclin-dependent kinase 15 (Homo sapiens) (UniProt Q96Q40); conditions: Compound concentration 1000.0 nM
[33] = system: Phosphatidylinositol 4,5-bisphosphate 3-kinase catalytic subunit alpha isoform (Homo sapiens), P42336 [H1047Y]; conditions: Compound concentration 1000.0 nM
[34] = system: Phosphatidylinositol 4,5-bisphosphate 3-kinase catalytic subunit alpha isoform (Homo sapiens), P42336 [M1043I]; conditions: Compound concentration 1000.0 nM
[35] = target: Serine/threonine-protein kinase PLK4 (Homo sapiens) (UniProt O00444); conditions: Compound concentration 1000.0 nM
[36] = target: Serine/threonine-protein kinase RIO2 (Homo sapiens) (UniProt Q9BVS4); conditions: Compound concentration 1000.0 nM
[37] = target: Serine/threonine-protein kinase TAO2 (Homo sapiens) (UniProt Q9UL54); conditions: Compound concentration 1000.0 nM
[38] = target: Dual specificity testis-specific protein kinase 1 (Homo sapiens) (UniProt Q15569); conditions: Compound concentration 1000.0 nM
[39] = target: NT-3 growth factor receptor (Homo sapiens) (UniProt Q16288); conditions: Compound concentration 1000.0 nM
[40] = target: Testis-specific serine/threonine-protein kinase 3 (Homo sapiens) (UniProt Q96PN8); conditions: Compound concentration 1000.0 nM
[41] = target: 5-hydroxytryptamine receptor 1D (Homo sapiens) (UniProt P28221); conditions: Compound concentration 10.0 uM
[42] = target: 5-hydroxytryptamine receptor 2A (Homo sapiens) (UniProt P28223); conditions: Compound concentration 10.0 uM
[43] = target: Mu-type opioid receptor (Homo sapiens) (UniProt P35372); conditions: Compound concentration 10.0 uM
[44] = target: GABA-A receptor; anion channel (Rattus norvegicus) (UniProt O09028+P15431+P18506+P18508+P19969+P20236+P23574+P23576+P28471+P28473+P30191+P62813+P63079+P63138+Q91ZM7+Q9ES14); conditions: Compound concentration 10.0 uM

Chain of Serine/threonine-protein kinase PLK4 (Homo sapiens) (O00444 whole entry): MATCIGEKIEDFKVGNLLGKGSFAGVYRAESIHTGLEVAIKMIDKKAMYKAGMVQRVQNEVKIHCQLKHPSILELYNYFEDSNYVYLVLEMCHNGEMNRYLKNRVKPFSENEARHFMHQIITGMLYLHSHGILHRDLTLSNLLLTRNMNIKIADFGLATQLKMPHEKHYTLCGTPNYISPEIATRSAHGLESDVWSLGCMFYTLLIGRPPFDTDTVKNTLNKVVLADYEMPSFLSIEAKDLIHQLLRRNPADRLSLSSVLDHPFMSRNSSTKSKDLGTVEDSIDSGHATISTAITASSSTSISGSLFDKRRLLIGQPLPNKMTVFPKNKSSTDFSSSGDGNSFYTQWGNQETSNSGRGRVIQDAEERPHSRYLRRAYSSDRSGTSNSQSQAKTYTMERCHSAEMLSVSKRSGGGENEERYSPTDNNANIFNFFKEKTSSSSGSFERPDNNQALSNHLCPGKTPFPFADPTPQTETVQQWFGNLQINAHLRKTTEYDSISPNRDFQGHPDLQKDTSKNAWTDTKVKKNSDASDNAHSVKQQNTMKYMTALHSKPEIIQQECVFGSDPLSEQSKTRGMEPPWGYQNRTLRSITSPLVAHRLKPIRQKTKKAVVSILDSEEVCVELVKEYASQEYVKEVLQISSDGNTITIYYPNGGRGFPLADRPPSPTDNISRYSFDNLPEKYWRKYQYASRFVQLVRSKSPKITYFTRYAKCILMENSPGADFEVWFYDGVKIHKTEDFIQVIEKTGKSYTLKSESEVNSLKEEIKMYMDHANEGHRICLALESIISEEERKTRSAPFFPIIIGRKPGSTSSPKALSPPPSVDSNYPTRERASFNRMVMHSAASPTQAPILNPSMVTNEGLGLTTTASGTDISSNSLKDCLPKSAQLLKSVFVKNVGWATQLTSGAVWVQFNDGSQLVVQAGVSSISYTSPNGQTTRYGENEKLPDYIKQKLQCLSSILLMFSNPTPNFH
Chain of Serine/threonine-protein kinase MRCK beta (Homo sapiens) (Q9Y5S2 whole entry): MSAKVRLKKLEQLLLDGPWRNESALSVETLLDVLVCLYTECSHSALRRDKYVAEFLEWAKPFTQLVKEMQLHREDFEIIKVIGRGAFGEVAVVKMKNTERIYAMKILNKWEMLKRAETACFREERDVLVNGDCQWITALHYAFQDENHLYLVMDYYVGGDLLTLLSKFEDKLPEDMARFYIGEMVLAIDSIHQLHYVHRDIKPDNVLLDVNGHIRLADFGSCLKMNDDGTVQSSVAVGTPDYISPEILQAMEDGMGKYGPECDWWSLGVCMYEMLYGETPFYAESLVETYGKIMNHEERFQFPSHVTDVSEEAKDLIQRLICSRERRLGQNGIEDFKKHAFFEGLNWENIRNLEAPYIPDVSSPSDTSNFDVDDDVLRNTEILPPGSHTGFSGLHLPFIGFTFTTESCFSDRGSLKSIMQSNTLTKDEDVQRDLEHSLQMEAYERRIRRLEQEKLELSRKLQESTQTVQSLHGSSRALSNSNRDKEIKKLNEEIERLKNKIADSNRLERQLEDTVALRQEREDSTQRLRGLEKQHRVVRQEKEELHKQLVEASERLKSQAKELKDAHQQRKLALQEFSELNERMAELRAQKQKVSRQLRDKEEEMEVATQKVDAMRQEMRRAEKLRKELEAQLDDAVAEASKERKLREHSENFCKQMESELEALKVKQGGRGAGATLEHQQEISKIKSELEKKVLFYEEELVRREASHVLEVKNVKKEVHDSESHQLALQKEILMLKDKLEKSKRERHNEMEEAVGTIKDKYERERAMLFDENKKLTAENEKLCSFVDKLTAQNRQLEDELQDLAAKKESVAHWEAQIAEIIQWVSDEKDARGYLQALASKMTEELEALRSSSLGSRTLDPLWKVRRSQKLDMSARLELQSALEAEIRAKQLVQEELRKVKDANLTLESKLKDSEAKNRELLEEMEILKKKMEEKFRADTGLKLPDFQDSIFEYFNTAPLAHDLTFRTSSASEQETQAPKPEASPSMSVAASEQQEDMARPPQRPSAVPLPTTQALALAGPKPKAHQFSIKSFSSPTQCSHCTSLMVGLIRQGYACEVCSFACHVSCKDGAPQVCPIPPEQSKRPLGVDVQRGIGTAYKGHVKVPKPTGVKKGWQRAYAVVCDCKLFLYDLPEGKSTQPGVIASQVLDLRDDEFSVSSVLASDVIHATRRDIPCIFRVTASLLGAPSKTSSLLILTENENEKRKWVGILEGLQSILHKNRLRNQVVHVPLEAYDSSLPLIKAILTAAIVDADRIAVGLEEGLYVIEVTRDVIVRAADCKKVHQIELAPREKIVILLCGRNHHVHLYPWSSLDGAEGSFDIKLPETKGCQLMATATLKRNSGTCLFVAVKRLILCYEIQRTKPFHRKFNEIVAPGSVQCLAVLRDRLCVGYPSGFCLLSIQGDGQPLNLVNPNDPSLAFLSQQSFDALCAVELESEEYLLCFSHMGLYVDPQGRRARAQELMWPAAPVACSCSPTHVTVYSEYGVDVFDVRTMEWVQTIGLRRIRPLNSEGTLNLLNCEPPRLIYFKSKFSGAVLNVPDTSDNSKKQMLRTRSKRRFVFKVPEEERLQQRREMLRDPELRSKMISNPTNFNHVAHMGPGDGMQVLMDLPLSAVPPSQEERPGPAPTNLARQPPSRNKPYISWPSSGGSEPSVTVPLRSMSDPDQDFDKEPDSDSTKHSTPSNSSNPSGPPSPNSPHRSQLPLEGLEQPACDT
Chain of Mu-type opioid receptor (Homo sapiens) (P35372 whole entry): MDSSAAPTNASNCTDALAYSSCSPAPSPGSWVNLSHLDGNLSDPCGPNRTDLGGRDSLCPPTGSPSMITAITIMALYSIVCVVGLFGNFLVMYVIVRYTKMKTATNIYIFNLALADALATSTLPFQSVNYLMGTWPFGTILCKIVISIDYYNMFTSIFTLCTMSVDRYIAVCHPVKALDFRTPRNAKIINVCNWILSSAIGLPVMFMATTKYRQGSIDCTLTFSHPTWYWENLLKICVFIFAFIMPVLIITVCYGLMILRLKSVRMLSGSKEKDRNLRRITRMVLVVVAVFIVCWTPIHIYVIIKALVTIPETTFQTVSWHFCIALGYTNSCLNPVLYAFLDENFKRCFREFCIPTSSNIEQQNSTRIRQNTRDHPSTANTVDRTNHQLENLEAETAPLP
Chain of Ephrin type-B receptor 4 (Homo sapiens) (P54760 whole entry): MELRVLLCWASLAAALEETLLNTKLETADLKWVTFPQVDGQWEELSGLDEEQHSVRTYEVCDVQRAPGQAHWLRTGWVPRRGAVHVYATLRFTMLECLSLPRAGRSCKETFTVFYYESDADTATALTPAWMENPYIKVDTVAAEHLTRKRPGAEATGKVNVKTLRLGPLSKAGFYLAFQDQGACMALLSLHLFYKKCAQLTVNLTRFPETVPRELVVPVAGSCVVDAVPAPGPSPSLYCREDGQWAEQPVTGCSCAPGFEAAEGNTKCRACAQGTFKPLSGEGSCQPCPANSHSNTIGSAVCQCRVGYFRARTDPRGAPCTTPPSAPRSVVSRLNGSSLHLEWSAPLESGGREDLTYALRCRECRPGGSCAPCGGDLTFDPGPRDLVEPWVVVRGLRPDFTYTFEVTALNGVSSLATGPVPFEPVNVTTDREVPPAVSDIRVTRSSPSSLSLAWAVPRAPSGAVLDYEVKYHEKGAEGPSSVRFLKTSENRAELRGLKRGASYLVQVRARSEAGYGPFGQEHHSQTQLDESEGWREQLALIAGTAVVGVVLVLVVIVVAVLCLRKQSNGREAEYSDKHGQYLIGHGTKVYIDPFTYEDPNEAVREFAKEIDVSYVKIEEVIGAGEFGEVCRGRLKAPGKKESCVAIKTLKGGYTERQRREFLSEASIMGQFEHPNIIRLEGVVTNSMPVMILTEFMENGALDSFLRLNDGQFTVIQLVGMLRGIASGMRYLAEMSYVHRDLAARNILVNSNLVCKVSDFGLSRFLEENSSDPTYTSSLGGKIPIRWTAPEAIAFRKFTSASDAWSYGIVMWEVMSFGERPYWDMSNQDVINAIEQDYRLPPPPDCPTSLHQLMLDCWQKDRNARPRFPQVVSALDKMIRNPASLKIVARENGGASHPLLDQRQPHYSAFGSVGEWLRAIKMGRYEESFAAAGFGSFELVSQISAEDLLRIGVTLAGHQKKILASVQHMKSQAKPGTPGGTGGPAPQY
Chain of Serine/threonine-protein kinase RIO2 (Homo sapiens) (Q9BVS4 whole entry, looked up): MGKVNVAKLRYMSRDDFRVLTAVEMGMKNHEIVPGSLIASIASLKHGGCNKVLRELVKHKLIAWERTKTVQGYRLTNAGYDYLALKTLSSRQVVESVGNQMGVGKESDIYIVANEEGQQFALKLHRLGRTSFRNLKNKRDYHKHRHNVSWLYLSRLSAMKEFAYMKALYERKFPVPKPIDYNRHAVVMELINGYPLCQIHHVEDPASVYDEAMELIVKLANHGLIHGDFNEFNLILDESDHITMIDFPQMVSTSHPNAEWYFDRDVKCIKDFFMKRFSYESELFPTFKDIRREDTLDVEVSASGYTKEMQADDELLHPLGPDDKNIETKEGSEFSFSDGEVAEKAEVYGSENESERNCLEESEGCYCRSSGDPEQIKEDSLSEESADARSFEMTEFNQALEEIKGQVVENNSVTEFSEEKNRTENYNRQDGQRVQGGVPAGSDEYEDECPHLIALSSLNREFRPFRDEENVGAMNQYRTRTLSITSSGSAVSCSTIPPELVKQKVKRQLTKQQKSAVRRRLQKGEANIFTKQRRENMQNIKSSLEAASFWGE
Chain of 5-hydroxytryptamine receptor 1D (Homo sapiens) (P28221 whole entry): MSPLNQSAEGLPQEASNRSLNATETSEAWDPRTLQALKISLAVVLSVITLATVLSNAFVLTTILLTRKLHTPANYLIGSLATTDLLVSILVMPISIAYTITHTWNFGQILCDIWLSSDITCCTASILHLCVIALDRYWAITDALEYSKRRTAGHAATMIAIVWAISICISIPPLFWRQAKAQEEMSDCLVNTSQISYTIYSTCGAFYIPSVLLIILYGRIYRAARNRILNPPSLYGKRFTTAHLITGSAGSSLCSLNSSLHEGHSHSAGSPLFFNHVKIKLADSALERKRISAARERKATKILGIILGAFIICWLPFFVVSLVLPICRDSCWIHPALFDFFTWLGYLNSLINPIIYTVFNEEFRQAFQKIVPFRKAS

CCS(=O)(=O)c1cc2cc(C[C@](O)(CC(C)(C)c3ccc(F)cc3C(N)=O)C(F)(F)F)[nH]c2cn1
inactive: residual activity [1] 94% | residual activity [2] 100% | residual activity [3] 100% | residual activity [4] 94% | residual activity [5] 100% | residual activity [6] 86% | residual activity [7] 100% | residual activity [8] 100% | residual activity [9] 95% | residual activity [10] 100% | residual activity [11] 100% | residual activity [12] 99% | residual activity [13] 80% | residual activity [14] 100% | residual activity [15] 100% | residual activity [16] 100% | residual activity [17] 96% | residual activity [18] 95% | residual activity [19] 84% | residual activity [20] 100% | residual activity [21] 100% | residual activity [22] 92% | residual activity [23] 100% | residual activity [24] 74% | residual activity [25] 100% | residual activity [26] 97% | residual activity [27] 94% | residual activity [28] 100% | residual activity [29] 100% | residual activity [30] 100% | residual activity [31] 100% | residual activity [32] 88% | residual activity [33] 100% | residual activity [34] 88% | residual activity [35] 80% | residual activity [36] 100% | residual activity [37] 85% | residual activity [38] 100% | residual activity [39] 94% | residual activity [40] 100% | inhibition [41] 5.54% | inhibition [42] 12.6% | inhibition [43] 7.51% | inhibition [44] 11%

CCS(=O)(=O)c1cc2cc(C[C@@](O)(CC(C)(C)c3ccc(F)cc3C(N)=O)C(F)(F)F)[nH]c2cn1
inactive: residual activity [1] 96% | residual activity [2] 92% | residual activity [3] 67% | residual activity [4] 93% | residual activity [5] 55% | residual activity [6] 57% | residual activity [7] 100% | residual activity [8] 81% | residual activity [9] 100% | residual activity [10] 100% | residual activity [11] 99% | residual activity [12] 100% | residual activity [13] 80% | residual activity [14] 100% | residual activity [15] 100% | residual activity [16] 80% | residual activity [17] 100% | residual activity [18] 79% | residual activity [19] 50% | residual activity [20] 98% | residual activity [21] 81% | residual activity [22] 85% | residual activity [23] 100% | residual activity [24] 80% | residual activity [25] 99% | residual activity [26] 100% | residual activity [27] 91% | residual activity [28] 100% | residual activity [29] 100% | residual activity [30] 100% | residual activity [31] 78% | residual activity [32] 59% | residual activity [33] 95% | residual activity [34] 99% | residual activity [35] 87% | residual activity [36] 95% | residual activity [37] 76% | residual activity [38] 77% | residual activity [39] 82% | residual activity [40] 96% | inhibition [41] 7.98% | inhibition [42] 14.1% | inhibition [43] 7.98% | inhibition [44] 19.5%
